The supplement of paper PMC10307832

What was measured:
Experiment in all cases: relative viability (nuclei count vs DMSO), 5 days (fraction); higher = more cells survive
[1] = compound: Cn1cnc2c(F)c(Nc3ccc(Br)cc3Cl)c(C(=O)NOCCO)cc21 [Selumetinib] + COc1cccc2cc(-c3nc([C@H]4CC[C@H](C(=O)O)CC4)n4ncnc(N)c34)[nH]c12 [OSI-027] (partner 0.5 µM)
Outline: (§1)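 Nuclei were stained with Hoechst during a one-step fixation (final 0.05% Triton X-100, 1% formaldehyde, 1 ug/ml Hoechst) carried out 5 days after dosing, then counted on 4× images. The cells, lung cancer lines in 1536-well plates, had been dosed by pin tool the day after seeding with one drug alone or a fixed anchor-drug dose plus five library-drug doses (not always all listed) in √10 steps. Relative viability is the nuclei count in treated wells divided by that in vehicle wells, and each value is the median of duplicate plates.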

[2] = compound: Cn1cnc2c(F)c(Nc3ccc(Br)cc3Cl)c(C(=O)NOCCO)cc21 [Selumetinib] + CS(=O)(=O)CCNCc1ccc(-c2ccc3ncnc(Nc4ccc(OCc5cccc(F)c5)c(Cl)c4)c3c2)o1 [Lapatinib] (partner 2 µM)
Outline: as §1

[3] = compound: Cn1cnc2c(F)c(Nc3ccc(Br)cc3Cl)c(C(=O)NOCCO)cc21 [Selumetinib] + Nc1nc2[nH]cc(CCc3ccc(C(=O)N[C@@H](CCC(=O)O)C(=O)O)cc3)c2c(=O)[nH]1 [Pemetrexed] (partner 0.2 µM)
Outline: as §1

[4] = compound: CC1(C)CCC(CN2CCN(c3ccc(C(=O)NS(=O)(=O)c4ccc(NCC5CCOCC5)c([N+](=O)[O-])c4)c(Oc4cnc5[nH]ccc5c4)c3)CC2)=C(c2ccc(Cl)cc2)C1 [Venetoclax] + COc1cc2c(Oc3ccc(NC(=O)C4(C(=O)Nc5ccc(F)cc5)CC4)cc3F)ccnc2cc1OCCCN1CCOCC1 [Foretinib] (partner 0.25 µM)
Outline: as §1

Cell Line | relative viability ([1]; first compound 0.02 µM) | relative viability ([1]; first compound 0.06325 µM) | relative viability ([1]; first compound 0.2 µM) | relative viability ([1]; first compound 0.6325 µM) | relative viability ([2]; first compound 0.02 µM) | relative viability ([2]; first compound 0.06325 µM) | relative viability ([2]; first compound 0.2 µM) | relative viability ([2]; first compound 0.6325 µM) | relative viability ([3]; first compound 0.02 µM) | relative viability ([3]; first compound 0.06325 µM) | relative viability ([3]; first compound 0.2 µM) | relative viability ([3]; first compound 0.6325 µM) | relative viability ([4]; first compound 0.01 µM) | relative viability ([4]; first compound 0.03162 µM) | relative viability ([4]; first compound 0.1 µM) | relative viability ([4]; first compound 0.3162 µM) | relative viability ([4]; first compound 1 µM)
PC-14 | 0.752 | 0.716 | 0.73 | 0.538 | 0.285 | 0.252 | 0.234 | 0.207 | 0.123 | 0.114 | 0.107 | 0.127 | 0.945 | 0.968 | 0.939 | 0.966 | 0.822
RERF-LC-KJ | 0.535 | 0.477 | 0.526 | 0.472 | 0.768 | 0.885 | 0.828 | 0.811 | 0.429 | 0.459 | 0.492 | 0.472 | 0.793 | 0.94 | 0.871 | 0.927 | 0.784
SK-LU-1 | 0.339 | 0.331 | 0.357 | 0.208 | 0.964 | 0.773 | 0.751 | 0.479 | 1 | 0.978 | 0.862 | 0.614 | 0.776 | 0.853 | 0.767 | 0.816 | 0.775
SK-MES-1 | 0.603 | 0.598 | 0.587 | 0.447 | 0.432 | 0.401 | 0.361 | 0.371 | 0.875 | 0.746 | 0.737 | 0.461 | 0.895 | 0.988 | 0.951 | 0.991 | 0.899
SW 1573 | 0.515 | 0.449 | 0.464 | 0.458 | 1.19 | 1.01 | 1.04 | 0.788 | 0.82 | 0.725 | 0.857 | 0.769 | 0.943 | 0.974 | 0.811 | 0.781 | 0.828
